Experimental data: PubChem BioAssay (NCI)
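Test compounds were applied to cells in 96-well plates for 48 hours at 5 doses. Abbreviation: GI50, concentration required for 50% inhibition of growth. TGI: concentration producing complete growth inhibition.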

What was measured:
Test in all cases: inhibition of tumour cell growth, NCI panel, 48 h
SF-539 CNS = test system: SF-539 CNS
UACC-257 melanoma = test system: UACC-257 melanoma
NCI-H522 lung = test system: NCI-H522 lung
COLO 205 colon = test system: COLO 205 colon
K-562 leukemia = test system: K-562 leukemia
IGROV1 ovarian = test system: IGROV1 ovarian
786-0 renal = test system: 786-0 renal
CAKI-1 renal = test system: CAKI-1 renal
MOLT-4 leukemia = test system: MOLT-4 leukemia
EKVX NSCLC = test system: EKVX NSCLC

SMILES | GI50 (SF-539 CNS) | TGI (SF-539 CNS) | GI50 (UACC-257 melanoma) | TGI (UACC-257 melanoma) | GI50 (NCI-H522 lung) | TGI (NCI-H522 lung) | GI50 (COLO 205 colon) | TGI (COLO 205 colon) | GI50 (K-562 leukemia) | TGI (K-562 leukemia) | GI50 (IGROV1 ovarian) | TGI (IGROV1 ovarian) | GI50 (786-0 renal) | TGI (786-0 renal) | GI50 (CAKI-1 renal) | TGI (CAKI-1 renal) | GI50 (MOLT-4 leukemia) | TGI (MOLT-4 leukemia) | GI50 (EKVX NSCLC) | TGI (EKVX NSCLC)
COc1cc(C2CC(c3ccc(C)cc3)=NN2C=O)ccc1Oc1ccnc2cc(Cl)ccc12 (stereo not given) | 3.85 µM | 27 µM | > 50 µM | > 50 µM | 2.72 µM | > 50 µM | > 50 µM | > 50 µM | > 50 µM | > 50 µM | 24.8 µM | > 50 µM | 5.07 µM | 19.6 µM | > 50 µM | > 50 µM | > 50 µM | > 50 µM | 7.75 µM | > 50 µM
O=C(CCCCCCSc1nc(-c2ccccc2)cc(-c2ccc(Cl)cc2)n1)NO | 1.84 µM | 5.31 µM | 2.67 µM | 11.4 µM | 1.13 µM | 8.05 µM | 2.38 µM | 5.76 µM | 1.66 µM | 10.8 µM | 1.24 µM | 6.5 µM | 2.22 µM | 6.92 µM | 1.51 µM | 6.89 µM | 0.557 µM | 4.26 µM | 3.7 µM | 14.3 µM
Cc1ccc(CNc2c3ccccc3nc3ccccc23)cc1 | 1.57 µM | 3.01 µM | 2.17 µM | 5.06 µM | 1.67 µM | 4.75 µM | 1.57 µM | 3.59 µM | 1.97 µM | 13.1 µM | 1.88 µM | 5.56 µM | 1.95 µM | 4.26 µM | 1.53 µM | 4.57 µM | 2.85 µM | 10.5 µM | 2.06 µM | 8.04 µM
Cc1cc(C)nc(NS(=O)(=O)c2ccc(Nc3c4ccccc4nc4c(C(=O)Nc5ccc(S(=O)(=O)N=C(N)N)cc5)ccc(Cl)c34)cc2)n1 |  | 45.6 µM |  | > 100 µM |  | 29.4 µM |  | > 100 µM |  | > 100 µM |  |  |  | > 100 µM |  | > 100 µM |  | 64.8 µM |  | > 100 µM
COc1cc([C@H]2c3cc4c(cc3O[C@@]3(O)COC(=O)[C@@H]23)OCO4)cc(OC)c1OC |  | > 100 µM |  | > 100 µM |  | > 100 µM |  | > 100 µM |  | > 100 µM |  | > 100 µM |  | > 100 µM |  | > 100 µM |  | > 100 µM |  | > 100 µM
N#Cc1c(-c2nc3ccccc3s2)c(=O)oc2cc(O)ccc12 |  | > 100 µM |  | > 100 µM |  | > 100 µM |  | 30.8 µM |  | > 100 µM |  | > 100 µM |  | > 100 µM |  | 85.6 µM |  | > 100 µM |  | > 100 µM
Cn1c2c(c3ccccc31)CCN(CCCCN1CCc3c(n(C)c4ccccc34)C1=O)C2 |  | > 100 µM |  | > 100 µM |  | > 100 µM |  | > 100 µM |  | > 100 µM |  | > 100 µM |  | > 100 µM |  | > 100 µM |  | > 100 µM |  | > 100 µM
Cc1ccc(-[n+]2c3cc(N)c(C)cc3nc3cc(C)c(Nc4ccccc4)cc32)cc1 |  |  | 0.242 µM | 0.952 µM | 0.249 µM | 0.788 µM | 0.0461 µM | 0.326 µM | 0.0393 µM | 2.69 µM | 0.166 µM | 1.54 µM | 0.2 µM | 0.644 µM | 0.173 µM | 0.461 µM | 0.244 µM | 1.69 µM | 0.0651 µM | 1.03 µM
CCOC(=O)[C@@]1(C)C=C2O[C@@H]3OC4(CCCCC4)O[C@@H]3C2=C2C(O)=CC=C(O)[C@]21C(=O)OC |  |  |  | > 68 µM |  | > 68 µM |  | > 68 µM |  | > 68 µM |  | > 68 µM |  | > 68 µM |  | > 68 µM |  | > 68 µM |  | > 68 µM
Cn1c(=O)nc2n(-c3ccc(Cl)cc3)c3ccc(Cl)cc3nc-2c1=O |  |  |  | 14.5 µM |  | 21.3 µM |  |  |  | 37.4 µM |  | 51.1 µM |  | 54.7 µM |  | 25.9 µM |  | 65.7 µM |  | 28.7 µM
COC(=O)N[C@H]1CCc2c(Br)c(OC)c(OC)c(OC)c2-c2ccc(SC)c(=O)cc21 | < 0.01 µM | < 0.01 µM | 11.4 µM | 61.2 µM | < 0.01 µM | 1.22 µM |  |  | < 0.01 µM | 15.9 µM | < 0.01 µM | > 39.5 µM | < 0.0163 µM | 24.8 µM | < 0.0209 µM | 21.9 µM | < 0.01 µM | 21.7 µM | < 0.01 µM | > 85.4 µM
O=C(Oc1ccc(Cl)cc1Cl)c1ccccc1Nc1ccnc(C(F)(F)F)c1 | 3.77 µM | 12 µM | 10.6 µM | 26 µM | 4.61 µM | 36 µM |  |  | 3.03 µM | 8.51 µM | 17.8 µM | > 100 µM | 1.93 µM | 5.87 µM | 2.1 µM | 4.14 µM | > 100 µM | > 100 µM | 18.5 µM | 40.9 µM
